Source: patent publication US12630560B2, “Solid forms, pharmaceutical compositions and preparation of heteroaromatic macrocyclic ether compounds” (Nuvalent, Inc., priority 2021, dated 2026)
Counter-ions that a name gives are not always drawn.

What was measured:
Format in all cases: physicochemical
[1] = Stability study of Compound 1 (Form 1) drug substance at three storage conditions
Description: A stability study was conducted for Compound 1 (Form 1) at three storage conditions: (1) 5° C.±3° C., ambient relative humidity (RH), data collected at 0 and 1 month; (2) 25° C.±2° C., 60%±5% RH, data collected at 0, 1, 3, 6, 9, and 12 months; and (3) 40° C.±2° C., 75%±5% RH, data collected at 0, 1, 3, and 6 months.

[2] = 7-days stability studies of solid forms (storage, then XRPD and HPLC)
Description: Form 1 of Compound 1: Method. About 10 mg of Form 1 of Compound 1 was placed in a 2 ml vial and stored for 7 days under the following conditions: A) 40° C./75% RH (open vial); B) 25° C./60% RH (open vial); C) 80° C. (sealed vial). Solids were analyzed by XRPD and submitted for HPLC.
Form 2 of Compound 1: Method. Portions of Form 1 of Compound 1 (10 mg) were placed in 1.5 ml vials. One vial was stored for 7 days under each of the following conditions: A) 40° C./75% RH (open vial); B) 25° C./60% RH (open vial); C) 80° C. (sealed vial). Solids were analyzed by XRPD and submitted for HPLC.

[3] = Compression test at 100 and 250 MPa (XRPD after compression)
Description: Approximately 100 mg of Form 1 of Compound 1 was placed inside a FT-IR press, and a pressure of 100 MPa was applied and held for 60 seconds. The resulting material was analyzed by XRPD.
Approximately 100 mg of Form 1 of Compound 1 was placed inside the apparatus of the compression clamp. This apparatus was placed inside the compression clamp and a pressure of 250 MPa was applied and hold for 60 seconds. The resulting material was analyzed by XRPD.

[4] = Dynamic vapour sorption (DVS); settings: for weight increase (DVS): relative humidity from about 0 to about 90%, about 25° C.
Description: Approximately, 10-20 mg of sample was placed into a mesh vapour sorption balance pan and loaded into a DVS Advantage dynamic vapour sorption balance by Surface Measurement Systems. The sample was subjected to a ramping profile from 40-90% relative humidity (RH) at 10% increments, maintaining the sample at each step until a stable weight had been achieved (dm/dt 0.004%, minimum step length 30 minutes, maximum step length 500 minutes) at 25° C. After completion of the sorption cycle, the sample was dried using the same procedure to 0% RH and then a second sorption cycle back to 40% RH. Two cycles were performed. The weight change during the sorption/desorption cycles were plotted, allowing for the hygroscopic nature of the sample to be determined. XRPD analysis was then carried out on any solid retained.

[5] = Stability studies of Form A of a besylate salt (XRPD); settings: 40° C. and 75% RH for 7 days
From the text: No changes in form were observed by XRPD.

## CCn1ncc2c1-c1cnc(N)c(c1)O[C@H](C)c1cc(F)ccc1-c1nn(C)nc1C2 [Compound 1]
[1]; 25° C.±2° C./60%±5% RH, 12 months
  chemical and physical stability (description, assay, related substances, water content, polymorphic form, chiral purity): No meaningful changes
[1]; 40° C.±2° C./75%±5% RH, 6 months
  chemical and physical stability (description, assay, related substances, water content, polymorphic form, chiral purity): No meaningful changes
[1]; all time points
  compliance with acceptance criteria (purity at least 97%, individual impurities ≤0.2%, total ≤2.0%, enantiomeric purity at least 99.5%, Form 1): complied with the acceptance criteria

## CCn1ncc2c1-c1cnc(N)c(c1)O[C@H](C)c1cc(F)ccc1-c1nn(C)nc1C2 [Form 1 of Compound 1]
[2]; 25° C./60% RH (open vial), 7 days
  % Purity by HPLC: 99.58%
[2]; 40° C./75% RH (open vial), 7 days
  % Purity by HPLC: 99.66%
[2]; 80° C. (sealed vial), 7 days
  % Purity by HPLC: 99.58%
[2]; all tested conditions (40° C./75% RH, 25° C./60% RH, 80° C.), 7 days
  stability of the solid form: stable under all tested conditions
[2]; all three samples: 40° C./75% RH, 25° C./60% RH, 80° C., one week
  purity by HPLC after storage: > 99.5%
[3]; 100 MPa for 60 seconds
  stability to compression (crystalline form by XRPD): stable
[3]; 250 MPa for 60 seconds
  stability to compression (crystalline form by XRPD): stable
[4]
  hygroscopicity: non-hygroscopic
  weight increase (DVS): about 0.25%

## CCn1ncc2c1-c1cnc(N)c(c1)O[C@H](C)c1cc(F)ccc1-c1nn(C)nc1C2 [Form 2]
[2]; 25° C./60% RH, 7 days
  solid form stability by XRPD: stable
[2]; 40° C./75% RH, 7 days
  solid form stability by XRPD: stable
[2]; 80° C. (sealed vial), 7 days
  solid form by XRPD after storage: correspond to that for Form 7

## CCn1ncc2c1-c1cnc(N)c(c1)O[C@H](C)c1cc(F)ccc1-c1nn(C)nc1C2 [Form 7]
[4]
  weight increase (DVS): about 0.27%

## CCn1ncc2c1-c1cnc(N)c(c1)O[C@H](C)c1cc(F)ccc1-c1nn(C)nc1C2 [Form A of a besylate salt of Compound 1]
[4]
  hygroscopicity: hygroscopic
  weight increase (DVS): about 2%
[4]; listed as Form A of a Besylate Salt of Compound 1
  weight increase (DVS): 2%
[5]
  physical stability (form by XRPD): physically stable
